Data from patent US9877479B2, “Pamoic acid blocks ethelyne signaling” (THE REGENTS OF THE UNIVERSITY OF CALIFORNIA, priority 2010, dated 2018).
Entries after “also recorded” stand apart in the source; their conditions may differ.

Experiments:
Type in all cases: in vivo
[1] = test system: auxin inducible reporter gene called DR5; experiment: Auxin inducible reporter gene DR5 expression; settings: auxin treatment; PA especially at high levels
Method: The effects of auxin on an auxin inducible reporter gene called DR5 were measured. Normally, auxin treatment results in increased expression of DR5, which is evidenced by blue color in the roots and leaf tip.

wild type roots = experiment: Gravitropic response of seedlings
Method: (§1) This is not a toxicity issue in due to the data in panels 10B and C. In panel 10B, seedlings were grown in the absence or presence of a highly inhibitory amount of NAA. A subset of these seedlings also had PA added to them. […] Gravitropism is a well know auxin dependent phenomenon.

seedling roots [2] = experiment: Growth of seedlings on increasing amounts of PA (root growth)
Method: as §1

[3] = test system: genes that require both ethylene and auxin for induction; experiment: Expression of genes dependent on auxin and ethylene in presence of PA; settings: in the presence of PA (panel 12B)
Method: (§2) Since PA reduces ethylene response, it was natural to assume that it would also reduce ethylene mediated gene expression. […] PA was then tested on gene expression that was dependent on auxin and ethylene.

[4] = test system: Wild type Arabidopsis seedlings; experiment: Ethylene dependent seedling triple response, dark, saturating ethylene
Method: (§3) FIG. 5. Wild type Arabidopsis seedlings were grown for four days in the dark in the presence of saturating ethylene (100 ppm) and either 0 or 10 μM pamoic acid after which it was determined whether aspects of the ethylene dependent seedling triple response were affected.
FIG. 6. Wild type Arabidopsis seedlings were grown for four days in the dark in the presence of either the ethylene perception inhibitor AgNO3 or saturating ethylene (100 ppm) along with either 0 or 10 μM pamoic acid. Following this, hypocotyl length and number of seedlings presenting an ethylene dependent apical hook in the presence of saturating ethylene (shown as percentages) were determined (n=40).
FIG. 7. Wild type Arabidopsis seedlings were grown for four days in the dark in the presence of either air or saturating ethylene (100 ppm) along with either 0 or 10 μM pamoic acid. Following this, root length was measured for each treatment (n=40).
(§4) This is a dark phenotype that results in severe stunting of shoot and root growth along with a pronounced apical hook in the presence of saturating ethylene. This phenotype is ultimately conditioned by auxin acting through ethylene. […] FIG. 5 represents a mutant that has constitutive ethylene signaling (ctr1) and FIGS. 6 and 7 represents wild type treated with ethylene+/−PA.

seedling roots [5] = experiment: Root growth in presence of a highly inhibitory amount of NAA, with or without PA; settings: PA added
Method: as §1

[6] = test system: Flowers of Dianthus caryophyllus (carnation); experiment: Ethylene dependent flower senescence of cut carnations; settings: cut flowers in water supplemented with 50 μM pamoic acid, observed to Day 8
Method: FIG. 8. Flowers of Dianthus caryophyllus (carnation) were harvested and immediately placed cut side down into either water or water supplemented with 50 μM pamoic acid.

[7] = test system: Mutant Arabidopsis seedlings (ctrl-3); experiment: Constitutive ethylene response phenotype of mutant seedlings
Method: FIG. 3. Mutant Arabidopsis seedlings (ctrl-3) that have a constitutive ethylene response phenotype, including severe root shortening dependent on unregulated ethylene signaling, were grown in the light in nutrient medium supplemented with either 0 or 10 μM pamoic acid for 7 days. Following this, roots of each were measured (n=40).
as §3, §4

ethylene inducible genes = experiment: Ethylene inducible gene expression in presence of PA; settings: ethylene treatment in the presence of PA (panel 12A); listed as PA
Method: as §2

[8] = wild type, four days in the dark, saturating ethylene (100 ppm), 10 μM pamoic acid

| SMILES | DR5 expression [1] | gravitropism of roots and shoots (wild type roots; in the presence of PA) | gravitropic response of seedling roots (wild type roots; wild type roots treated with PA) | root growth at high concentrations of PA (seedling roots [2]; high concentrations of PA) | root length with increasing amounts of PA (seedling roots [2]; increasing amounts of PA) | expression of two genes that require both ethylene and auxin for induction [3] | ethylene response phenomena including apical hook formation and root growth inhibition ([4]; wild type treated with ethylene +/- PA (FIGS. 6 and 7)) | ethylene dependent apical hook [4, 8] | root length compared to seedlings not treated with pamoic acid [4, 8] | length of PA+NAA treated roots relative to NAA treated roots (seedling roots [5]) | petal inrolling or petal senescence [6] | constitutive ethylene response of ctrl-3 mutants ([7]; ctrl-3 mutants) | ethylene response phenomena including apical hook formation and root growth inhibition ([7]; mutant with constitutive ethylene signaling (ctr1), FIG. 5) | expression of ethylene inducible genes following ethylene treatment (ethylene inducible genes) |
| --- | --- | --- | --- | --- | --- | --- | --- | --- | --- | --- | --- | --- | --- | --- |
| CC(C)(Oc1ccc(Cl)cc1)C(=O)O [CPIB, reference compound] | eliminates DR5 expression |  |  |  |  |  |  |  |  |  |  |  |  |  |
| O=C(O)c1cc2ccccc2c(Cc2c(O)c(C(=O)O)cc3ccccc23)c1O [pamoic acid, Pamoic acid] | reduced or eliminated DR5 expression | both roots and shoots become agravitropic | completely destroys the gravitropic response | almost completely block root growth | progressively shorter roots | extremely reduced | strictly blocks | elimination of the ethylene dependent apical hook | significant increase in root length | nearly double the length of NAA treated roots | no evidence of petal inrolling or petal senescence even after Day 8 | reversing the constitutive ethylene response | strictly blocks | also upregulated in the presence of PA; also recorded: normally upregulated following ethylene treatment even in the presence of PA |
